Assays:
Assay in all cases: relative viability (nuclei count vs DMSO), 5 days (fraction); higher = more cells survive
Erlotinib + Navitoclax = compound: C#Cc1cccc(Nc2ncnc3cc(OCCOC)c(OCCOC)cc23)c1 [Erlotinib] + CC1(C)CCC(c2ccc(Cl)cc2)=C(CN2CCN(c3ccc(C(=O)NS(=O)(=O)c4ccc(N[C@H](CCN5CCOCC5)CSc5ccccc5)c(S(=O)(=O)C(F)(F)F)c4)cc3)CC2)C1 [Navitoclax] (partner 0.5 µM)
Summary of the method: (§1)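 Lung cancer cell lines in 1536-well plates got either a single drug or a fixed anchor-drug dose together with five library-drug doses (not always all listed) in √10 steps, by pin tool, on the day after seeding. Nuclei were counted after 5 days, and relative viability is the treated-to-vehicle ratio of nuclei counts. Values are medians of duplicate plates.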

Erlotinib + Dasatinib = compound: C#Cc1cccc(Nc2ncnc3cc(OCCOC)c(OCCOC)cc23)c1 [Erlotinib] + Cc1nc(Nc2ncc(C(=O)Nc3c(C)cccc3Cl)s2)cc(N2CCN(CCO)CC2)n1 [Dasatinib] (partner 0.075 µM)
Summary of the method: as §1

Erlotinib + Pemetrexed = compound: C#Cc1cccc(Nc2ncnc3cc(OCCOC)c(OCCOC)cc23)c1 [Erlotinib] + Nc1nc2[nH]cc(CCc3ccc(C(=O)N[C@@H](CCC(=O)O)C(=O)O)cc3)c2c(=O)[nH]1 [Pemetrexed] (partner 0.2 µM)
Summary of the method: as §1

Row | Cell Line | relative viability (Erlotinib + Navitoclax; first compound 0.02 µM) | relative viability (Erlotinib + Navitoclax; first compound 0.2 µM) | relative viability (Erlotinib + Navitoclax; first compound 0.6325 µM) | relative viability (Erlotinib + Navitoclax; first compound 2 µM) | relative viability (Erlotinib + Dasatinib; first compound 0.02 µM) | relative viability (Erlotinib + Dasatinib; first compound 0.2 µM) | relative viability (Erlotinib + Dasatinib; first compound 0.6325 µM) | relative viability (Erlotinib + Dasatinib; first compound 2 µM) | relative viability (Erlotinib + Pemetrexed; first compound 0.02 µM) | relative viability (Erlotinib + Pemetrexed; first compound 0.2 µM) | relative viability (Erlotinib + Pemetrexed; first compound 0.6325 µM) | relative viability (Erlotinib + Pemetrexed; first compound 2 µM)
1 | NCI-H2009 | 1.25 | 1.24 | 1.24 | 1.19 | 0.365 | 0.351 | 0.432 | 0.238 | 1.07 | 0.999 | 1.01 | 1.04
2 | NCI-H2023 | 1.01 | 1.02 | 0.916 | 0.837 | 0.639 | 0.408 | 0.623 | 0.44 | 0.226 | 0.211 | 0.174 | 0.184
3 | NCI-H2085 | 1.23 | 0.988 | 0.893 | 0.808 | 0.235 | 0.2 | 0.266 | 0.249 | 0.867 | 0.695 | 0.716 | 0.474
4 | NCI-H2087 | 1.14 | 0.913 | 0.899 | 0.904 | 0.799 | 0.821 | 0.923 | 0.735 | 0.753 | 0.704 | 0.728 | 0.701
5 | NCI-H2126 | 0.879 | 0.707 | 0.537 | 0.402 | 0.595 | 0.435 | 0.444 | 0.374 | 0.717 | 0.6 | 0.415 | 0.376
6 | NCI-H2170 | 0.513 | 0.377 | 0.451 | 0.216 | 0.554 | 0.548 | 0.434 | 0.272 | 0.275 | 0.261 | 0.242 | 0.237
7 | NCI-H2228 | 1.28 | 0.909 | 0.679 | 0.676 | 0.625 | 0.492 | 0.5 | 0.368 | 0.335 | 0.295 | 0.362 | 0.337
8 | NCI-H2347 | 1.07 | 0.833 | 0.837 | 0.796 | 0.371 | 0.309 | 0.289 | 0.296 | 0.454 | 0.401 | 0.439 | 0.409
9 | NCI-H2405 | 0.915 | 0.902 | 1.01 | 0.78 | 0.214 | 0.224 | 0.201 | 0.195 | 0.893 | 1.1 | 1.06 | 1.09
10 | NCI-H3122 | 1.05 | 1.04 | 1.01 | 1.03 | 0.799 | 0.453 | 0.903 | 0.877 | 0.215 | 0.186 | 0.179 | 0.168
11 | PC-3 [JPC-3] | 0.653 | 0.443 | 0.349 | 0.295 | 0.937 | 0.627 | 0.352 | 0.29 | 0.719 | 0.477 | 0.488 | 0.37
12 | PC-14 | 0.935 | – | 0.391 | 0.31 | 0.0626 | 0.0332 | 0.0591 | 0.0181 | 0.11 | 0.168 | 0.15 | 0.133
13 | RERF-LC-KJ | 0.861 | 0.663 | 0.583 | 0.771 | 0.89 | 0.658 | 0.662 | 0.583 | 0.461 | 0.457 | 0.444 | 0.44
14 | SK-LU-1 | 1.07 | 1.36 | 0.752 | 0.733 | 0.185 | 0.211 | 0.186 | 0.164 | 1.07 | 1.01 | 1.05 | –
15 | SK-MES-1 | 1.35 | 1.21 | – | 0.574 | 0.338 | 0.175 | 0.177 | 0.156 | 1.07 | 0.519 | 0.545 | 0.418
16 | SW 1573 | 0.922 | 1.05 | – | 0.896 | 0.764 | – | 0.463 | 0.41 | 0.886 | 0.746 | 0.865 | 0.805
17 | UMC-11 | 0.337 | 0.281 | 0.336 | 0.3 | 0.512 | 0.438 | 0.482 | 0.424 | 0.759 | 0.746 | 0.851 | 0.668

Reference: the supplement of paper PMC10307832
